Source: ChEMBL document CHEMBL6078624, “Structure-based discovery of a 4,5-Dihydropyrazole-cored PET ligand for imaging of receptor-interacting serine/threonine-protein kinase 1 (RIPK1) in the brain” (Eur J Med Chem, 2024)

Tests used:
[1] = Biodistribution in male ICR mouse kidney at 0.74 MBq, iv administered into tail vein pre-treated with GSK'547 followed by compound addition by automatic gamma counter analysis relative to baseline; type: ADME, organism-based; details: in vivo
[2] = Drug uptake in male Sprague-Dawley rat cerebellum at 12.6 to 18.6 MBq, iv administered into tail vein by PET/CT imaging analysis; type: ADME, organism-based; details: in vivo, dose 12.6-18.6 MBq
[3] = Biodistribution in male ICR mouse kidneys at 0.74 MBq, iv administered into tail vein by automatic gamma counter analysis; type: ADME, organism-based, Kidney; details: in vivo
[4] = Biodistribution in male ICR mouse lungs at 0.74 MBq, iv administered into tail vein measured at 60 mins post-injection by automatic gamma counter analysis; type: ADME, organism-based, Lung; details: in vivo, 1 h
[5] = Biodistribution in male ICR mouse small intestine at 0.74 MBq, iv administered into tail vein pre-treated with WL8 followed by compound addition by automatic gamma counter analysis relative to baseline; type: ADME, organism-based; details: in vivo
[6] = Biodistribution in male ICR mouse brain at 0.74 MBq, iv administered into tail vein pre-treated with GSK'547 by automatic gamma counter analysis; type: ADME, organism-based; details: in vivo
[7] = Biodistribution in male ICR mouse kidneys at 0.74 MBq, iv administered into tail vein measured at 60 mins post-injection by automatic gamma counter analysis; type: ADME, organism-based, Kidney; details: in vivo, 1 h
[8] = Drug uptake in male mouse thalamus at 5 microCi/ml incubated for 30 mins by phosphor imager analysis; type: ADME, tissue-based; details: 0.5 h
[9] = Drug uptake in male mouse midbrain at 5 microCi/ml incubated for 30 mins by phosphor imager analysis; type: ADME, tissue-based; details: 0.5 h
[10] = Biodistribution in male ICR mouse liver at 0.74 MBq, iv administered into tail vein pre-treated with WL8 followed by compound addition by automatic gamma counter analysis relative to baseline; type: ADME, organism-based; details: in vivo
[11] = Biodistribution in male ICR mouse heart at 0.74 MBq, iv administered into tail vein pre-treated with WL8 followed by compound addition by automatic gamma counter analysis relative to baseline; type: ADME, organism-based; details: in vivo
[12] = Drug uptake in male Sprague-Dawley rat brain at 12.6 to 18.6 MBq, iv administered into tail vein measured at 1.5 mins post-injection by PET/CT imaging analysis; type: ADME, organism-based; details: in vivo, 0.025 h, dose 12.6-18.6 MBq
[13] = Biodistribution in male ICR mouse pancreas at 0.74 MBq, iv administered into tail vein pre-treated with GSK'547 followed by compound addition by automatic gamma counter analysis relative to baseline; type: ADME, organism-based; details: in vivo
[14] = Biodistribution in male ICR mouse brain at 0.74 MBq, iv administered into tail vein pre-treated with WL8 at 2 mg/kg followed by compound addition by automatic gamma counter analysis; type: ADME, organism-based; details: in vivo
[15] = Biodistribution in male ICR mouse brain at 0.74 MBq, iv administered into tail vein pre-treated with GSK'547 followed by compound addition by automatic gamma counter analysis relative to baseline; type: ADME, organism-based; details: in vivo
[16] = Biodistribution in male ICR mouse small intestine at 0.74 MBq, iv administered into tail vein pre-treated with GSK'547 followed by compound addition by automatic gamma counter analysis; type: ADME, organism-based; details: in vivo
[17] = Biodistribution in male ICR mouse bone at 0.74 MBq, iv administered into tail vein pre-treated with GSK'547 followed by compound addition by automatic gamma counter analysis; type: ADME, organism-based, Bone element; details: in vivo
[18] = Biodistribution in male ICR mouse blood at 0.74 MBq, iv administered into tail vein measured at 10 mins post-injection by automatic gamma counter analysis; type: ADME, organism-based; details: in vivo
[19] = Biodistribution in male ICR mouse brain at 0.74 MBq, iv administered into tail vein measured at 60 mins post-injection by automatic gamma counter analysis; type: ADME, organism-based; details: in vivo, 1 h
[20] = Drug degradation in male mouse liver assessed as parent compound remaining at 26.6 MBq by radio-HPLC analysis; type: ADME, tissue-based
[21] = Biodistribution in male ICR mouse brain at 0.74 MBq, iv administered into tail vein measured at 2 mins post-injection by automatic gamma counter analysis; type: ADME, organism-based; details: in vivo
[22] = Drug degradation in male mouse brain assessed as parent compound remaining at 26.6 MBq by radio-HPLC analysis; type: ADME, tissue-based
[23] = Biodistribution in male ICR mouse bone at 0.74 MBq, iv administered into tail vein pre-treated with GSK'547 followed by compound addition by automatic gamma counter analysis relative to baseline; type: ADME, organism-based, Bone element; details: in vivo
[24] = Drug uptake in male Sprague-Dawley rat brain at 12.6 to 18.6 MBq, iv administered into tail vein measured after rapid washout by PET/CT imaging analysis; type: ADME, organism-based; details: in vivo, dose 12.6-18.6 MBq
[25] = Biodistribution in male ICR mouse liver at 0.74 MBq, iv administered into tail vein measured at 60 mins post-injection by automatic gamma counter analysis; type: ADME, organism-based; details: in vivo, 1 h
[26] = Biodistribution in male ICR mouse pancreas at 0.74 MBq, iv administered into tail vein pre-treated with WL8 followed by compound addition by automatic gamma counter analysis relative to baseline; type: ADME, organism-based; details: in vivo
[27] = Biodistribution in male ICR mouse pancreas at 0.74 MBq, iv administered into tail vein by automatic gamma counter analysis; type: ADME, organism-based; details: in vivo
[28] = Biodistribution in male ICR mouse bone at 0.74 MBq, iv administered into tail vein measured at 30 mins post-injection by automatic gamma counter analysis; type: ADME, organism-based, Bone element; details: in vivo, 0.5 h
[29] = Biodistribution in male ICR mouse small intestine at 0.74 MBq, iv administered into tail vein measured at 60 mins post-injection by automatic gamma counter analysis; type: ADME, organism-based; details: in vivo, 1 h
[30] = Biodistribution in male ICR mouse heart at 0.74 MBq, iv administered into tail vein pre-treated with GSK'547 followed by compound addition by automatic gamma counter analysis relative to baseline; type: ADME, organism-based; details: in vivo
[31] = Biodistribution in male ICR mouse heart at 0.74 MBq, iv administered into tail vein by automatic gamma counter analysis; type: ADME, organism-based; details: in vivo
[32] = Biodistribution in male ICR mouse blood at 0.74 MBq, iv administered into tail vein pre-treated with WL8 followed by compound addition by automatic gamma counter analysis relative to baseline; type: ADME, organism-based; details: in vivo
[33] = Drug degradation in male mouse plasma assessed as parent compound remaining at 26.6 MBq by radio-HPLC analysis; type: ADME, cell-free

Drug uptake [1]: Active
SUV [2]: Active
Drug uptake [3]: > 6.5 % ID/g
Drug uptake [4]: < 4 % ID/g
Drug uptake [5]: Not_active
Drug uptake [6]: 91%
Drug uptake [7]: < 4 % ID/g
Drug uptake [8]: Active
Drug uptake [9]: Active
Drug uptake [10]: Active
Drug uptake [11]: Active
SUVmax [12]: 0.81
Drug uptake [13]: Active
Drug uptake [14]: 58%
Drug uptake [15]: Active
Drug uptake [16]: > 27%
Drug uptake [17]: > 29%
Drug uptake [18]: 5.32 % ID/g
Drug uptake [19]: 0.14 % ID/g
Stability [20]: 13.6%
Drug uptake [21]: 4.8 % ID/g
Stability [22]: 35.2%
Drug uptake [23]: Not_active
SUV [24]: 0.12
Drug uptake [25]: < 4 % ID/g
Drug uptake [26]: Active
Drug uptake [27]: > 6.5 % ID/g
Drug uptake [28]: 7.94 % ID/g
Drug uptake [29]: 20.75 % ID/g
Drug uptake [30]: Active
Drug uptake [31]: > 6.5 % ID/g
Drug uptake [32]: Active
Stability [33]: 10.8%
Structure (SMILES): Cc1ccc(C2CC=NN2C(=O)C2CCN(C(=O)c3cccc([18F])n3)CC2)cc1F (stereo not drawn)
